Measurements reported in patent US20030224525A1, “Enhanced photophysics of conjugated polymers” (The University of Chicago, priority 2002, published 2003).

Assay: Particle size by dynamic light scattering
Assay type: physicochemical
Conditions: in solution; complex 1:1 mole ratio, filtered with 100 nanometer filter
Procedure: More striking results come from fluorescence microscopy of the polymer-surfactant complex (1:1 mole ratio). After filtration with a 100 nanometer filter, the 5×10^−5 M complex solution is perfectly clear and suitable for spectroscopic studies. However, when spread on a glass substrate (microscope slide) with a cover glass, incubated for 10 minutes at room temperature and observed under a 100×oil immerse objective, the polymer-surfactant complex consists of bright, uniform and well-defined nano-sized particles (FIG. 2A). […] The particle size was measured using dynamic light scattering methods. […] As a comparison, the measured particle size in pure MPS-PPV solution is about 9 nm with a broad gaussian distribution; while pure DOTAP solution contains particles ( presumably lipid bilayer assemblies) with a mean diameter of 57 nm, consistent with the literature value. The sizes of the polymer and complex particles are consistent with the results from fluorescence correlation spectroscopic experiments.
Since the spectra in FIG. 1 indicated the possibility of a second complex component in the polymer-surfactant mixture, the solution emission was examined using a shorter excitation wavelength (400 nm). As shown in FIG. 3 (inset A), the solution does container a very low concentration of species emitting at 465 nm. […]

In the case of `CCCCCCCC/C=C\CCCCCCCC(=O)OCC(C[N+](C)(C)C)OC(=O)CCCCCCC/C=C\CCCCCCCC.[Cl-]` (stereo not shown) [DOTAP, N-[1-(2,3-Dioleoyloxy)propyl]-N,N,N,-trimethylammonium chloride], the average particle size is reported as 57 nm.
